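Interpolation was linear, between the two tested concentrations surrounding the appropriate level; five concentrations were tested over 48 hours in 96-well plates. Definition used: TGI = concentration required for complete inhibition of growth.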
What was measured:
Assay in all cases: NCI-60 cell line screen, 48 h
IGROV1 ovarian = system: IGROV1 ovarian
LOX IMVI melanoma = system: LOX IMVI melanoma
OVCAR-4 ovarian = system: OVCAR-4 ovarian
OVCAR-8 ovarian = system: OVCAR-8 ovarian
SF-268 CNS = system: SF-268 CNS
SK-MEL-5 melanoma = system: SK-MEL-5 melanoma
SN12C renal = system: SN12C renal
SNB-75 CNS = system: SNB-75 CNS
SR leukemia = system: SR leukemia
MCF7 breast = system: MCF7 breast

Measured: TGI

COc1cc2ccc3c4ccccc4cnc3c2cc1OC
> 100 µM: IGROV1 ovarian | LOX IMVI melanoma | OVCAR-4 ovarian | OVCAR-8 ovarian | SF-268 CNS | SK-MEL-5 melanoma | SN12C renal | SNB-75 CNS | SR leukemia

CCOC1OC(CO)C(O)CC1n1ccc(=O)[nH]c1=O (centres undefined)
> 100 µM: IGROV1 ovarian | LOX IMVI melanoma | MCF7 breast | OVCAR-4 ovarian | OVCAR-8 ovarian | SF-268 CNS | SK-MEL-5 melanoma | SN12C renal | SNB-75 CNS

CCOc1ccccc1N=Nc1ccc2oc(=O)c(C(C)=O)cc2c1
> 100 µM: IGROV1 ovarian | LOX IMVI melanoma | OVCAR-4 ovarian | OVCAR-8 ovarian | SF-268 CNS | SK-MEL-5 melanoma | SN12C renal
43.2 µM: SNB-75 CNS

Nc1nc2c(N)cc(C(F)(F)F)cc2nc1-c1ccccc1
93.5 µM: SNB-75 CNS
> 100 µM: IGROV1 ovarian | LOX IMVI melanoma | OVCAR-4 ovarian | OVCAR-8 ovarian | SF-268 CNS | SK-MEL-5 melanoma | SN12C renal | SR leukemia

CC(C)[C@@H]1CC[C@@H](C)C[C@H]1OC(=O)c1c2n(c3ccccc13)C[C@H]1OC(C)(C)O[C@@H]21
24.1 µM: SR leukemia
> 100 µM: IGROV1 ovarian | LOX IMVI melanoma | MCF7 breast | OVCAR-4 ovarian | OVCAR-8 ovarian | SF-268 CNS | SK-MEL-5 melanoma | SN12C renal

O=Cc1c[nH]c2c(=O)[nH]cnc12
> 100 µM: IGROV1 ovarian | LOX IMVI melanoma | OVCAR-8 ovarian | SF-268 CNS | SK-MEL-5 melanoma | SN12C renal | SNB-75 CNS | SR leukemia

CC(C)N(C(=O)C12C3C4C1C1C2C3C41C#N)C(C)C (centres undefined)
> 100 µM: IGROV1 ovarian | OVCAR-4 ovarian | OVCAR-8 ovarian | SF-268 CNS | SK-MEL-5 melanoma | SN12C renal | SNB-75 CNS
45 µM: SR leukemia
> 67.2 µM: LOX IMVI melanoma

CC1=CC2C(C=C1)S(=O)(=O)N1CC21c1ccccc1 (centres undefined)
> 100 µM: IGROV1 ovarian | LOX IMVI melanoma | OVCAR-8 ovarian | SF-268 CNS | SK-MEL-5 melanoma | SN12C renal | SNB-75 CNS | SR leukemia

O=c1[nH]/c(=C/c2ccc3c(c2)OCO3)c(=O)[nH]/c1=C/c1ccc2c(c1)OCO2
> 10 µM: IGROV1 ovarian | LOX IMVI melanoma | MCF7 breast | OVCAR-4 ovarian | OVCAR-8 ovarian | SF-268 CNS | SK-MEL-5 melanoma | SN12C renal | SNB-75 CNS

O=C(Cc1ccccc1)NN1C(=O)C(Cl)C1c1ccccc1Cl (centres undefined)
> 93.1 µM: IGROV1 ovarian
> 59.5 µM: LOX IMVI melanoma
> 100 µM: OVCAR-4 ovarian | OVCAR-8 ovarian | SF-268 CNS | SK-MEL-5 melanoma | SN12C renal | SNB-75 CNS
64.4 µM: SR leukemia

CCN(CC)CCCNc1c2c(Cl)cc(Cl)cc2nc2nc(=O)[nH]c(C)c12
> 100 µM: IGROV1 ovarian | OVCAR-4 ovarian | SK-MEL-5 melanoma | SN12C renal
48.5 µM: LOX IMVI melanoma
53.9 µM: MCF7 breast
> 10 µM: OVCAR-8 ovarian | SR leukemia
52.5 µM: SF-268 CNS

CCCCOCCOCCOC1=CC(=O)c2c(O)ccc(O)c2C1=O
> 10 µM: SF-268 CNS | SR leukemia
3.4 µM: OVCAR-4 ovarian
3.22 µM: SN12C renal
4.01 µM: MCF7 breast
3.38 µM: IGROV1 ovarian
2.25 µM: SK-MEL-5 melanoma
3.39 µM: LOX IMVI melanoma
